The source of these data is patent US20030134869A1, “Novel therapeutic use of nicergoline” (priority 1998, published 2003).

Experiment [1] has as its system motor neurons in astrocyte/motor neuron co-cultures. Briefly: Survival of motor neurons in astrocyte/motor neuron co-cultures. Type of experiment: cell-based, rats. The conditions noted are these: for % OF LABELED MOTOR NEURONS: vehicle alone = 100 ± 9.4. On the procedure: (§1) The motor neuron-enriched cultures are prepared using the centrifugation method which was described by R. L. SCHNAAR and A. E. SCHAFFNER, J. Neurosci., 1, 204-217 (1981) and modified by W. CAMU and C. E. HENDERSON, J. Neurosci. Methods, 44, 59-70 (1992). The motor neurons are spread, at a density of 2500 cells per plate, on 35 mm culture plates which have previously been coated with laminin/ornithine in accordance with the method of A. G. ESTEVEZ et al., J. Neurosci., 18 (3), 923-931 (1998). The cultures are then maintained in L15 medium (GIBCO BRL) containing sodium bicarbonate (22 mM), conalbumin (0.1 mg/ml), putrescine (0.1 mM), insulin (5 μg/ml), sodium selenite ([…]), glucose (20 mM), progesterone (21 nM), penicillin (100 IU/ml) and streptomycin (100 μg/ml).
The astrocytes are obtained from young, one-day-old rats using the slightly modified method of R. P. SANETO and J. DE VELLIS as described in Neurochemistry a practical approach (A. J. TURNER and H. S. St JOHN) IRL Press, Oxford-Washington D.C., pp. 27-63. The spinal cords are dissected out under sterile conditions and freed of meninges and dorsal ganglia. Five to ten spinal cords are transferred into PBS (phosphate buffer saline) and cut before being incubated at 37° C. for 25 minutes in PBS to which 0.25% trypsin has been added. The enzymatic treatment is stopped by adding 10 ml of Dulbecco's modified Eagle medium (DMEM), to which 10% fetal calf serum (FCS) has been added, and the cells are collected by centrifugation. Another step of mechanical dissociation is performed using the end of a 1 ml pipette. The cells are spread, at a density of 1.5-2×10^6 cells per 25 cm^2 of culture medium, in DMEM containing 10% FCS. After 2 days in vitro, the cultures are fed every day. When a visible monolayer of cells has been completed, the cultures are stirred at 250 rpm for 48 hours and, on the following day, the monolayers are treated with cytosine arabinoside (10^−5 M) for 48 hours. The astrocyte monolayers are then amplified to a density of five on 35 mm culture plates for initially 25 cm^2 culture flasks.
The spinal astrocyte cultures consist, to an extent of more than 98%, of flat, polygonal cells which are immunoreactive for the glial fibrillar acid protein (GFAP). The monolayers are exposed to the product to be tested and then incubated with the motor neuron medium in order to obtain a conditioned culture medium. This medium is transferred and tested at different dilutions in order to determine its effects on neuronal survival.
The cells are fixed in 4% paraformaldehyde and 0.1% glutaraldehyde in PBS (pH 7.4 and at 4° C. for 15 minutes) and in a cold methanolic solution. […]

For experiment [2], the system named is motor neurons in motor neuron-enriched cultures. Briefly: Neuronal death in motor neuron-enriched cultures in the absence of trophic factor. Type of experiment: cell-based. The note with it: p<0.05. On the procedure:
The effect of nicergoline has therefore been determined in a degeneration model which is induced by depriving cultured motor neurons of neurotrophic factor.
as §1
More than 70% of the cells are immunoreactive for the neurotrophin p75 receptor and the Islet ½ markers for spinal motor neurons. […]
The number of motor neurons is estimated by counting the labeled cells in an area of 0.4-1 cm^2 under a microscope which enlarges 200 times. In all cases, the values are expressed as a percentage of the number of motor neurons which are present in cultures maintained using trophic factors. […]

On to `CO[C@]12C[C@@H](COC(=O)c3cncc(Br)c3)CN(C)[C@@H]1Cc1cn(C)c3cccc2c13` [Nicergoline, (8β)-10-methoxy-1,6-dimethylergoline-8-methanol-5-bromonicotinate], for which the “% OF LABELED MOTOR NEURONS” value in experiment [1] (nicergoline 0.1 μM) is listed as 115.7 ± 16%; in experiment [1] (nicergoline 1 μM, p < 0.05 vs vehicle), 145.5 ± 24 %; in experiment [1] (nicergoline 10 μM, p < 0.01 vs vehicle), 163.7 ± 22.5 %. The “increase of the survival of motor neurons as compared with cocultures treated with the vehicle alone” value in experiment [1] (nicergoline 10 μM) is on record as 63.7%. Besides, the “increase of the survival of the motor neurons” value in experiment [2] worked out at 13%.
